Laboratory results as given in ChEMBL document CHEMBL4184132, “Chrodrimanins K-N and Related Meroterpenoids from the Fungus Penicillium sp. SCS-KFD09 Isolated from a Marine Worm, Sipunculus nudus” (J Nat Prod, 2017).
Values after ≈ are worked out from the molar mass of the structure shown.

Tested on: Staphylococcus aureus
Assay: Antimicrobial activity against Staphylococcus aureus by XTT assay
Format: functional
Conditions: not given

In order of rising MIC:
1. CN[C@@H]1[C@@H](O)[C@@H](O[C@@H]2[C@@H](O)[C@H](O[C@H]3O[C@H](CN)CC[C@H]3N)[C@@H](N)C[C@H]2N)OC[C@]1(C)O.O=S(=O)(O)O  4 µg/mL
2. C/C(=C\Cc1c(O)cc(O)c2c1C[C@@H](C)OC2=O)CCC(O)[C@@]1(C)CC[C@@H](C(C)(C)O)O1 (stereo partly specified)  32 µg/mL (≈ 71.3 µM)

Tested on: Influenza A virus
Assay: Antiviral activity against Influenza A virus (A/Puerto Rico/8/34(H1N1)) infected in MDCK cells assessed as protection against virus-induced cytopathogenicity after 48 hrs by crystal-violet staining-based assay
Format: functional, organism-based
Conditions: A/Puerto Rico/8/1934(H1N1)

In order of rising IC50:
1. C[C@@H]1Cc2c3c(cc(O)c2C(=O)O1)O[C@@]1(C)CC[C@H]2C(C)(C)C(=O)CC[C@]2(C)[C@@H]1C3  34 µM
2. CC(=O)O[C@@H]1c2c3c(cc(O)c2C(=O)O[C@@H]1C)O[C@@]1(C)[C@@H](O)C[C@H]2C(C)(C)C(=O)CC[C@]2(C)[C@@H]1C3  58 µM
3. C[C@@H]1Cc2c3c(c(Cl)c(O)c2C(=O)O1)O[C@@]1(C)[C@@H](O)C[C@H]2C(C)(C)C(=O)C=C[C@]2(C)[C@@H]1C3  74 µM
4. NC(=O)c1ncn([C@@H]2O[C@H](CO)[C@@H](O)[C@H]2O)n1 [RIBAVIRIN]  103 µM
